Experimental data as given in patent US20130029962A1, “Substituted Heteroaromatic Pyrazole-Containing Carboxamide and Urea Compounds as Vanilloid Receptor Ligands” (Gruenenthal GmbH, priority 2011, published 2013).

Biological target: T1, vanilloid receptor 1 (VR1/TRPV1 receptor) (Homo sapiens, UniProt Q8NER1)
T1 construct: expressed in transfected cells; host or cells: CHO K1
Assay: Functional testing on the vanilloid receptor 1 (VR1/TRPV1): FLIPR Ca2+ influx assay, displacement of capsaicin
Format: cell-based, human being
Conditions: 5 μM compound; capsaicin (Cap); human being; read-out: inhibition (as a percentage) at the concentration after @, Cap
Summary of the method: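 Fluo-4 FLIPR Ca2+ influx in CHO K1 cells transfected with human VR1, measuring displacement of 100 nM capsaicin; rat VR1 agonism/antagonism also assessed in rat dorsal root ganglion neurons cultured 2–3 days at 37° C with 25 ng/mL NGF, then loaded with 2 μM Fluo-4.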

T1 sequence (Q8NER1 whole entry): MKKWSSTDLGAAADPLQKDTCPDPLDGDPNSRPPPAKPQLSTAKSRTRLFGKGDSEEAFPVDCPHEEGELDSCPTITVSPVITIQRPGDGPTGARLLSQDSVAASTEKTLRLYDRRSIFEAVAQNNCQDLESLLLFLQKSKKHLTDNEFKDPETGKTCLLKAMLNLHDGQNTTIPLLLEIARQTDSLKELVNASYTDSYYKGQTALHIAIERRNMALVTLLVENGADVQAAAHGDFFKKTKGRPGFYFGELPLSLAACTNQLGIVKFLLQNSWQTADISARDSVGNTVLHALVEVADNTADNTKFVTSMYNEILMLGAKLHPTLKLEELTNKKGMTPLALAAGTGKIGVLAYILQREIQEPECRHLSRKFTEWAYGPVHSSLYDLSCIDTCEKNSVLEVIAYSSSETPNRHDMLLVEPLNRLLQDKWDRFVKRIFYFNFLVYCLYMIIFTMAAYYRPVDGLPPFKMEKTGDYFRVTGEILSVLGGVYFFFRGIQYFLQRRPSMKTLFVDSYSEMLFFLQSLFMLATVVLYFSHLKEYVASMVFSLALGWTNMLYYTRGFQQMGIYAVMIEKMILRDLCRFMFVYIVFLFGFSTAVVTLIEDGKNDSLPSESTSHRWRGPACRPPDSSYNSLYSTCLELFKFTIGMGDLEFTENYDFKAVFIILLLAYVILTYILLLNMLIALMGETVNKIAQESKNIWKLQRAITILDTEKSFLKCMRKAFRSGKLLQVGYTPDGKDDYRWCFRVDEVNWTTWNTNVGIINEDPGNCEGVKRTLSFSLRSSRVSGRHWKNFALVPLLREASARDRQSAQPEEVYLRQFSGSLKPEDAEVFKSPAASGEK

Row | inhibition at 5 µM [%] | SMILES
1 | 35 | CC(C(=O)NCc1cc(C(F)(F)F)nn1-c1cccc(Cl)c1)c1ccccn1 (stereo not shown) [Example 3, N-((1-(3-chlorophenyl)-3-(trifluoromethyl)-1H-pyrazol-5-yl)methyl)-2-(pyridin-2-yl)propanamide]
2 | 30 | O=C(Cc1ccncn1)NCc1cc(C(F)(F)F)nn1-c1cccc(Cl)c1 [Example 13, N-((1-(3-chlorophenyl)-3-(trifluoromethyl)-1H-pyrazol-5-yl)methyl)-2-(pyrimidin-4-yl)acetamide]
3 | 45 | Cc1ncc(NC(=O)NCc2cc(C(F)(F)F)nn2-c2cccc(Cl)c2)cn1 [Example 19, 1-((1-(3-chlorophenyl)-3-(trifluoromethyl)-1H-pyrazol-5-yl)methyl)-3-(2-methylpyrimidin-5-yl)urea]

Same assay, conditions: capsaicin (Cap) as stimulus; Ki from IC50 by Cheng-Prusoff; read-out: (f) Ki (human being) [nM] Cap

Row | Ki [nM] | SMILES
4 | 64 | O=C(NCc1cc(C(F)(F)F)nn1-c1cccc(Cl)c1)Nc1ccc(N2CC[C@@H](O)C2)nc1 [Example 124, (R)-1-((1-(3-chlorophenyl)-3-(trifluoromethyl)-1H-pyrazol-5-yl)methyl)-3-(6-(3-hydroxypyrrolidin-1-yl)pyridin-3-yl)urea]
5 | 6 | CC(C(=O)NCc1cc(C(F)(F)F)nn1-c1cccc(Cl)c1)c1cnc(C(=O)Nc2ccc(F)cc2)nc1 (stereo not shown) [Example 63, 5-(1-((1-(3-chlorophenyl)-3-(trifluoromethyl)-1H-pyrazol-5-yl)methylamino)-1-oxopropan-2-yl)-N-(4-fluorophenyl)pyrimidine-2-carboxamide]
6 | 77 | Cc1cc(-n2nc(C(F)(F)F)cc2CNC(=O)Nc2ccc(NCCO)nc2)ccc1F [Example 158, 1-((1-(4-fluoro-3-methylphenyl)-3-(trifluoromethyl)-1H-pyrazol-5-yl)methyl)-3-(6-(2-hydroxyethylamino)pyridin-3-yl)urea]
7 | 47 | CC(C)(C)c1cc(CNC(=O)Nc2ccccn2)n(-c2cccc(Cl)c2)n1 [Example 4, 1-((3-tert-butyl-1-(3-chlorophenyl)-1H-pyrazol-5-yl)methyl)-3-(pyridin-2-yl)urea]
8 | 38 | O=C(NCc1cc(C(F)(F)F)nn1-c1cccc(Cl)c1)Nc1ccc(N2CC(O)C2)nc1 [Example 111, 1-((1-(3-chlorophenyl)-3-(trifluoromethyl)-1H-pyrazol-5-yl)methyl)-3-(6-(3-hydroxyazetidin-1-yl)pyridin-3-yl)urea]
9 | 28 | CC(C(=O)NCc1cc(C(F)(F)F)nn1-c1ccc(F)c(Cl)c1)c1ccc(CCO)nc1 (stereo not shown) [Example 149, N-((1-(3-chloro-4-fluorophenyl)-3-(trifluoromethyl)-1H-pyrazol-5-yl)methyl)-2-(6-(2-hydroxyethyl)pyridin-3-yl)propanamide]
10 | 37 | CC(C)(C)c1cc(CNC(=O)Nc2ccc(N3CC(O)C3)nc2)n(-c2cccc(F)c2)n1 [Example 110, 1-((3-tert-butyl-1-(3-fluorophenyl)-1H-pyrazol-5-yl)methyl)-3-(6-(3-hydroxyazetidin-1-yl)pyridin-3-yl)urea]
11 | 15 | CC(C(=O)NCc1cc(C(F)(F)F)nn1-c1cccc(Cl)c1)c1ccc(N(C)CCO)nc1 (stereo not shown) [Example 148, N-((1-(3-chlorophenyl)-3-(trifluoromethyl)-1H-pyrazol-5-yl)methyl)-2-(6-((2-hydroxyethyl)(methyl)amino)pyridin-3-yl)propanamide]
12 | 85 | CC(C)(C)c1cc(CNC(=O)Nc2ccc(CCO)nc2)n(-c2cccc(F)c2)n1 [Example 152, 1-((3-tert-butyl-1-(3-fluorophenyl)-1H-pyrazol-5-yl)methyl)-3-(6-(2-hydroxyethyl)pyridin-3-yl)urea]
13 | 8 | O=C(NCc1cc(C(F)(F)F)nn1-c1cccc(Cl)c1)Nc1ccc(NCCO)nc1 [Example 71, 1-((1-(3-chlorophenyl)-3-(trifluoromethyl)-1H-pyrazol-5-yl)methyl)-3-(6-(2-hydroxyethylamino)pyridin-3-yl)urea]
